# The supplement of paper PMC10307832
# Assays:
# Test in all cases: relative viability (nuclei count vs DMSO), 5 days (fraction); higher = more cells survive
# Linsitinib + Trametinib = compound: C[C@]1(O)C[C@@H](c2nc(-c3ccc4ccc(-c5ccccc5)nc4c3)c3c(N)nccn32)C1 [Linsitinib] + CC(=O)Nc1cccc(-n2c(=O)n(C3CC3)c(=O)c3c(Nc4ccc(I)cc4F)n(C)c(=O)c(C)c32)c1 [Trametinib] (partner 0.02 µM)
# Procedure, shortened: (§1)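 Relative viability was taken as the ratio of nuclei in treated wells to nuclei in vehicle wells. Lung cancer cell lines in 1536-well plates received compounds by pin tool one day after seeding, either one drug alone or a fixed anchor-drug dose plus five library-drug doses (not always all listed) in √10 steps. Nuclei were counted on 4× images after 5 days of treatment, and values are medians of duplicate plates.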
# Ispinesib + Bortezomib = compound: Cc1ccc(C(=O)N(CCCN)[C@@H](c2nc3cc(Cl)ccc3c(=O)n2Cc2ccccc2)C(C)C)cc1 [Ispinesib] + CC(C)C[C@H](NC(=O)[C@H](Cc1ccccc1)NC(=O)c1cnccn1)B(O)O [Bortezomib] (partner 0.002 µM)
# Procedure, shortened: as §1
# Linsitinib + OSI-027 = compound: C[C@]1(O)C[C@@H](c2nc(-c3ccc4ccc(-c5ccccc5)nc4c3)c3c(N)nccn32)C1 [Linsitinib] + COc1cccc2cc(-c3nc([C@H]4CC[C@H](C(=O)O)CC4)n4ncnc(N)c34)[nH]c12 [OSI-027] (partner 0.5 µM)
# Procedure, shortened: as §1
# Ispinesib + Foretinib = compound: Cc1ccc(C(=O)N(CCCN)[C@@H](c2nc3cc(Cl)ccc3c(=O)n2Cc2ccccc2)C(C)C)cc1 [Ispinesib] + COc1cc2c(Oc3ccc(NC(=O)C4(C(=O)Nc5ccc(F)cc5)CC4)cc3F)ccnc2cc1OCCCN1CCOCC1 [Foretinib] (partner 0.25 µM)
# Procedure, shortened: as §1
Cell Line,relative viability (Linsitinib + Trametinib; first compound 0.01 µM),relative viability (Linsitinib + Trametinib; first compound 0.03162 µM),relative viability (Linsitinib + Trametinib; first compound 0.1 µM),relative viability (Linsitinib + Trametinib; first compound 0.3162 µM),relative viability (Linsitinib + Trametinib; first compound 1 µM),relative viability (Ispinesib + Bortezomib; first compound 0.001 µM),relative viability (Ispinesib + Bortezomib; first compound 0.003162 µM),relative viability (Ispinesib + Bortezomib; first compound 0.01 µM),relative viability (Ispinesib + Bortezomib; first compound 0.03162 µM),relative viability (Ispinesib + Bortezomib; first compound 0.1 µM),relative viability (Linsitinib + OSI-027; first compound 0.01 µM),relative viability (Linsitinib + OSI-027; first compound 0.03162 µM),relative viability (Linsitinib + OSI-027; first compound 0.1 µM),relative viability (Linsitinib + OSI-027; first compound 1 µM),relative viability (Ispinesib + Foretinib; first compound 0.001 µM),relative viability (Ispinesib + Foretinib; first compound 0.003162 µM),relative viability (Ispinesib + Foretinib; first compound 0.01 µM),relative viability (Ispinesib + Foretinib; first compound 0.03162 µM),relative viability (Ispinesib + Foretinib; first compound 0.1 µM),relative viability (Linsitinib + OSI-027; first compound 0.3162 µM)
NCI-H2009,0.275,0.266,0.256,0.307,0.242,1,0.986,0.854,0.189,0.261,0.746,0.646,0.696,0.428,1.28,1.33,1.32,1.09,0.431,
NCI-H441,0.537,0.44,0.339,0.215,0.231,0.48,0.668,0.4,0.41,0.228,0.672,0.616,0.546,0.312,0.926,1,1.19,0.419,0.291,0.307
NCI-H1437,0.518,0.518,0.519,0.34,0.352,0.451,0.608,0.592,0.487,0.134,0.874,0.885,1.02,0.893,1.3,1.39,1.39,1.27,0.748,0.853
PC-14,0.684,0.681,0.618,0.699,0.575,0.859,1.01,0.962,0.71,0.0916,0.746,0.706,0.798,0.546,1.02,1.09,1.23,0.917,0.186,0.568
LCLC-103H,0.658,0.56,0.688,0.632,0.647,0.96,1.27,1.19,0.813,0.447,0.44,0.475,0.42,0.367,0.869,1.03,0.95,0.665,0.693,0.356
COR-L23,0.623,0.505,0.548,0.475,0.507,1.29,1.04,1.17,0.247,0.27,0.626,0.968,0.804,0.509,0.959,1.03,1.16,0.412,0.146,0.52
H3255,,0.664,0.593,0.528,0.579,1,0.991,0.814,0.38,0.374,0.654,0.682,0.725,0.576,0.932,0.869,0.995,0.508,0.158,0.467
NCI-H2126,0.568,0.552,0.533,0.509,0.473,1.1,1.14,1.24,1.14,0.773,0.671,0.909,0.596,0.358,1.27,1.35,1.39,1.14,1.03,0.478
HCC-366,0.369,0.381,0.402,0.317,0.202,1.29,1.1,1.43,0.323,0.0344,1.03,0.999,0.888,0.235,0.895,0.959,0.994,0.913,0.0534,0.821
LU99A,0.524,0.602,0.528,,0.493,1.06,1.12,1.33,0.223,0.183,0.32,0.314,0.299,0.24,0.835,0.858,0.814,0.55,0.428,0.245
HOP-62,0.405,0.39,0.427,,0.368,0.46,0.974,1.18,1.09,0.32,0.877,0.866,0.96,0.544,1.11,1.32,1.35,1.11,0.601,
HCC-15,0.376,0.376,0.286,0.264,0.287,1.14,1.19,1.24,0.563,0.226,0.677,0.677,0.616,0.246,1.1,1.02,1.1,0.561,0.188,
HARA,0.448,0.809,0.878,,0.623,1.37,1.21,1.42,0.931,0.211,0.505,0.502,0.637,0.232,1.18,0.931,0.976,1.04,0.132,
NCI-H1355,0.424,0.353,0.352,0.323,0.246,1.28,1.23,1.43,0.815,0.293,0.419,0.41,0.307,0.226,0.991,1.01,1.24,0.95,0.444,0.244
NCI-H727,0.349,0.403,0.317,0.358,0.29,,1.71,1.21,0.762,0.337,0.609,0.597,0.608,0.358,0.944,0.873,0.933,0.91,0.718,0.347
NCI-H520,0.618,0.64,0.641,,0.712,0.568,0.706,0.541,0.218,0.242,0.232,0.188,0.25,0.332,0.906,0.832,0.866,0.379,0.306,
